As a reminder, the IC50 is the concentration that inhibits the measured activity by half.

We go through eight compounds from paper PMC7069944, “Amino acid levels determine metabolism and CYP450 function of hepatocytes and hepatoma cell lines” (Nature Communications, 2020).

Where “and” joins values, the source holds several entries; their conditions need not be identical. Identical values can stand only once. Like-named read-outs stand apart in the source and are kept apart here. Some results are limits rather than exact numbers.

In one data set the test system is PHHs. The data set is described as follows: Single-exposure toxicity, Hoechst/DRAQ7 live cell number, PHH 12 h. The following applies: Homo sapiens, read-out: IC50 single exposure, Mean.
The test system of data set [1] is Co-culture of PHHs and fibroblasts. Also on record: method as in ref 4 (a number printed in a supplementary file, which may have a reference list of its own: not looked up in the article's list). The following applies: 24h, ATP; cited from earlier work.
For a further data set, the system named is Cryopreserved PHH. Also on record: method as in ref 16 (a number printed in a supplementary file, which may have a reference list of its own: not looked up in the article's list). The following applies: 48h, ATP; cited from earlier work.
In data set [2] the test system is HC6X in the BJ1-iPSC background. In words: Single-exposure toxicity, Hoechst/DRAQ7 live cell number, HC6X (BJ1-iPSC). The following applies: Homo sapiens.
Description: (§1) PSCs were differentiated in a 384-well format. Cells were treated with 14 different concentrations of compounds in 6 repeats. As a negative control, 41 wells were left untreated. HepG2 were seeded at 40,000 cells per well. For control conditions, HepG2 were exposed after 2 days of culture. […] Cells were fixed with 4% PFA. Imaging was done using an Operetta High-Content Imaging System (Perkin Elmer) and image analysis was performed using Harmony software (Perkin Elmer). […] As a positive control, 1 donor of PHHs was seeded at 10,000 cells per well. Drugs were administrated after 8 h of attachment.
The next data set relates to PHH. The arrangement: method as in ref 15 (a number printed in a supplementary file, which may have a reference list of its own: not looked up in the article's list). The following applies: 24h, ALT release; cited from earlier work.
The next data set relates to Spheroid of PHHs. The arrangement: method as in ref 3 (a number printed in a supplementary file, which may have a reference list of its own: not looked up in the article's list). The following applies: 48h, ATP; cited from earlier work.
The test system of the next data set is Rat hepatocytes. The arrangement: method as in ref 17 (a number printed in a supplementary file, which may have a reference list of its own: not looked up in the article's list). The following applies: 24h, MTT; cited from earlier work.
The test system of data set [3] is cells cultured in AAGLY medium. The data set is described as follows: Single-exposure toxicity, summary value of this study (Boon et al). The class given is cell-based. The following applies: Homo sapiens, single 24 h exposure. The protocol:
To evaluate the ability to predict hepatotoxicity, we adapted the differentiation assays to a 384-well format. […] As a readout, we evaluated cell viability by resazurin conversion and correlated the results to therapeutic doses (Cmax values).
PSCs were differentiated in a 384-well format. […] As a negative control, 41 wells were left untreated. HepG2 were seeded at 40,000 cells per well. […] Cells were fixed with 4% PFA. […] Drugs were administrated after 8 h of attachment.

For data set [4], the system named is HC6X in the H9-ESC background. The data set is described as follows: Single-exposure toxicity, Hoechst/DRAQ7 live cell number, HC6X (H9-ESC). The following applies: for IC50: Homo sapiens.
Description: as §1
The next data set concerns HepG2. In words: Single-exposure toxicity, Hoechst/DRAQ7 live cell number, HepG2. The following applies: for IC50 single exposure, Mean: HepG2 CTL D7; for IC50: Homo sapiens.
The subject of data set [5] is Co-culture of endothelial cells and mouse hepatocytes. Also on record: method as in ref 12 (a number printed in a supplementary file, which may have a reference list of its own: not looked up in the article's list). The following applies: 36h, Cell count; cited from earlier work.
Another data set relates to HLCs. The data set is described as follows: Single-exposure toxicity, Hoechst/DRAQ7 live cell number, HLCs.
Another data set addresses CYP2D6 (Homo sapiens, UniProt P10635). In words: Drug biotransformation cocktail: dextromethorphan. On the procedure:
Comparative CYP450 biotransformation studies were performed to assess functionality across a number of gold standard primary hepatocyte models. Cryopreserved PHHs were obtained from a single donor (Lonza, Breda, The Netherlands) or pooled donors (Thermo Scientific, Merelbeke, Belgium). Upon thawing, cell suspensions (0.5 million cells/ml) were prepared in WE medium using 24-well plates (0.5 ml/well) on an orbital shaker and metabolization activity was assessed following a 15 min equilibration period. Human Hepatopac® plates were obtained from Ascendance Biotechnology (Ascendance Biotechnology, Boston USA) and cultures were maintained following instructions of the provider. Spheroid cultures were generated in-house as essentially described by Bell et al.[42].
Finally, the system was re-equilibrated at 60% (A)/40% (B) for an additional 0.7 min. Total run time was 3.8 min and 2 µl aliquots were injected onto the system for analysis.
All data collection, processing, and analysis was performed with Analyst® software (v1.6.2. SCIEX).

Data set [6] relates to CYP3A4. In words: qRT-PCR CYP3A4 expression in HepG2. Format: cell-based, human. On the procedure:
AA supplementation was accomplished through the addition of MEM Non-Essential Amino Acids Solution (100 × ) and MEM Amino Acids Solution (50 × ) (Thermo Scientific) to the culture medium. For AA1, AA2, and AA3 medium, we added respectively 2 ml, 8 ml, and 16 ml of non-essential AA solution and 1 ml, 4 ml, and 8 ml of essential AA solution per 100 ml of LDM, with or without glucose. Culture medium was then made PH neutral through the addition of NaOH. […] PSC derived HLCs were differentiated in LDM until D12. AA supplementation (AA1, AA2 and AA3) was performed from day 12 until day 20, 30 or 40 of differentiation. […] HepG2, HUH7.5, Hep3B, HHL5, and HEK293 cells were maintained in DMEM supplemented with 10% fetal bovine serum as shown in Supplementary Table 4. AA supplementation consisted of addition of 16 ml of non-essential AA mix and 8 ml of essential AA mix per 100 ml of medium and a further addition of 20 g/l of any of the single AAs. […] PHHs were maintained in a medium composition that was based on WE as detailed in ref. [67].
RNA extraction was performed using the GenElute Mammalian Total RNA Miniprep Kit (Sigma-Aldrich). Then, genomic DNA was eliminated using the On-Column DNase I Digestion kit (Sigma-Aldrich). Last, 1 µg of RNA was transcribed to cDNA using the Superscript III First-Strand synthesis (Invitrogen). Gene expression analysis was performed using the Platinum SYBR green qPCR supermix-UDG kit (Invitrogen) in a ViiA 7 Real-Time PCR instrument (Thermo Scientific, Waltham, MA). The sequences of all used qRT-PCR primers are listed in Supplementary Table 6. Of these, ribosomal protein L19 (RPL19) was used as a housekeeping gene for normalization.

Data set [7] deals with CYP3A4. The following applies: HepG2 in AA3+GLY medium with rapamycin. On the procedure:
Protein amount was measured using a pierce BCA protein assay kit (Thermo Scientific).

Data set [8] has as its system CYP3A4. The data set is described as follows: qRT-PCR CYP3A4 expression in HLCs. Format: cell-based, human. The following applies: HLCs in AA3 medium with or without 2% of the single amino acid or mix; Figure 4B. On the procedure: AA supplementation was accomplished through the addition of MEM Non-Essential Amino Acids Solution (100 × ) and MEM Amino Acids Solution (50 × ) (Thermo Scientific) to the culture medium. For AA1, AA2, and AA3 medium, we added respectively 2 ml, 8 ml, and 16 ml of non-essential AA solution and 1 ml, 4 ml, and 8 ml of essential AA solution per 100 ml of LDM, with or without glucose. Culture medium was then made PH neutral through the addition of NaOH. […] PSC derived HLCs were differentiated in LDM until D12. AA supplementation (AA1, AA2 and AA3) was performed from day 12 until day 20, 30 or 40 of differentiation. […] HepG2, HUH7.5, Hep3B, HHL5, and HEK293 cells were maintained in DMEM supplemented with 10% fetal bovine serum as shown in Supplementary Table 4. AA supplementation consisted of addition of 16 ml of non-essential AA mix and 8 ml of essential AA mix per 100 ml of medium and a further addition of 20 g/l of any of the single AAs. Hepatoma cell lines were plated in normal culture medium, with addition of AA3 + 20 g/l AA once cells reached 60% confluency, and this for 3 or 7 additional days of culture. PHHs were maintained in a medium composition that was based on WE as detailed in ref. [67].
RNA extraction was performed using the GenElute Mammalian Total RNA Miniprep Kit (Sigma-Aldrich). Then, genomic DNA was eliminated using the On-Column DNase I Digestion kit (Sigma-Aldrich). […]

Setting [9] is: read-out: IC50 single exposure, Mean, BJ1 HC6X AAGLY D40.
Setting [10] is: read-out: IC50 single exposure, Mean, BJ1 HC6X AAGLY D50.
Where [11] appears, read: read-out: IC50 single exposure, Mean, H9 HC6X AAGLY D40.
Where [12] appears, read: read-out: IC50 single exposure, Mean, H9 HC6X AAGLY D50.
Setting [13] is: HepG2, read-out: IC50 single exposure, Mean, HepG2 AAGLY D30.
Where [14] appears, read: HepG2, read-out: IC50 single exposure, Mean, HepG2 AAGLY D40.
Where [15] appears, read: single amino acid supplementation, relative to CTL (CTL values equal HepG2 D7 CTL).

CYP2D6, sequence (P10635 whole entry): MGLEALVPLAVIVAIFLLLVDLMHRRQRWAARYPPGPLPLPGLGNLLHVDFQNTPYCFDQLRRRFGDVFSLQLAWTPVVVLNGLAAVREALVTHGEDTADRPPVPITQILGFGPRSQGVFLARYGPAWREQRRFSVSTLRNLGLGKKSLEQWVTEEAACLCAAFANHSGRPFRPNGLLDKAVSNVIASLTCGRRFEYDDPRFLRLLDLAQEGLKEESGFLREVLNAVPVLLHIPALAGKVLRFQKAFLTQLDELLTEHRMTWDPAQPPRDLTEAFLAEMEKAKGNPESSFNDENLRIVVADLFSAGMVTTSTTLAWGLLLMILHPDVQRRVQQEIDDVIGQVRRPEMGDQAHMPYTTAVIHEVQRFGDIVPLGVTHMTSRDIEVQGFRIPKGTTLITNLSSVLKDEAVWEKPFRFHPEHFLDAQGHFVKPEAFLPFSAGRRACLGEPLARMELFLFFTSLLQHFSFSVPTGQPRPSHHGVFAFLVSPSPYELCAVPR

`CC(=O)Nc1ccc(O)cc1` [APAP, acetaminophen]: the IC50 with PHHs is 13.3 mM; in [1], 5.5 mM; in the data set on Cryopreserved PHH it was over 25 mM; in data set [2] (setting [9]) it was 12 mM; in data set [2] (setting [10]) it was 8.66 mM; with PHH it was about 10 mM. Also, the IC50 with Spheroid of PHHs is 10 mM; in the data set with Rat hepatocytes, 7.6 mM; in data set [3], 10 mM; in data set [4] (setting [11]) it was 12.1 mM; in data set [4] (setting [12]) it was 9.91 mM; with HepG2 (setting [13]) it was 11.9 mM. Moreover, the values for the IC50 (in the data set on HepG2 (setting [14]); in data set [5]) were 12 mM and 7 mM, respectively. The “toxicity after single administration” value (in data set [4] (HC6X cultured in basal medium); in the data set on HepG2 (HepG2 cultured in basal medium); in the data set on HLCs (HLC cultured in basal medium)) was “no toxicity” each time. In addition, the “IC50 single exposure, Mean” value in the data set with HepG2 is listed as “no toxicity”; in the data set on HLCs (H9 HLC AAGLY D40), “No toxicity”; in the data set on HLCs (H9 HLC LDM D40) it was “No toxicity”.

Consider `COc1ccc2c(c1)[C@]13CCCC[C@@H]1[C@H](C2)N(C)CC3` [Dextrometrophan], for which the “Dextrometrophan biotransformation (cocktail)” value on CYP2D6 (HC6X LDM D40) is 0; on CYP2D6 (HepG2 AAGLY D32), 0; on CYP2D6 (HepG2 CTL D4), 0; on CYP2D6 (HepaRG diff D7) it was 0; on CYP2D6 (Hepatopac), 0.5629 and 0.7098 and 0.9714; on CYP2D6 (PHH1) it was 15.8656 and 14.7 and 17.4198.

For the compound `N[C@@H](CO)C(=O)O` [SER, serine], the “Relative CYP3A4 expression” value in the data set on CYP3A4 [6] (setting [15]) is 405.322 and 582.424 and 382.821.

With `CO[C@H]1C[C@@H]2CC[C@@H](C)[C@@](O)(O2)C(=O)C(=O)N2CCCC[C@H]2C(=O)O[C@H]([C@H](C)C[C@@H]2CC[C@@H](O)[C@H](OC)C2)CC(=O)[C@H](C)/C=C(\C)[C@@H](O)[C@@H](OC)C(=O)[C@H](C)C[C@H](C)/C=C/C=C/C=C/1C` [rapamycin], in the data set with CYP3A4 [7], the “effect on AA-mediated induction of CYP3A4” value is “blocked the induction of CYP3A4”. In the data set on CYP3A4 [6] (HepG2 AAGLY D30 with RAPA), the “Relative CYP3A4 expression” value is 1.244 and 1.301 and 1.514.

In the case of `C[C@H](N)C(=O)O` [ALA, alanine], the “Relative CYP3A4 expression” value in the data set with CYP3A4 [6] (setting [15]) was 353.956 and 394.102 and 280.416.

As for `O=C(O)[C@@H]1CCCN1` [PRO, proline], in the data set with CYP3A4 [6] (setting [15]), the “Relative CYP3A4 expression” value is 252.463 and 338.714 and 412.836.

In the case of `C=C(C)[C@H]1Cc2c(ccc3c2O[C@@H]2COc4cc(OC)c(OC)cc4[C@@H]2C3=O)O1` [rotenone], the IC50 in the data set with PHHs came to 1.28e-06 mM; in [2] (setting [9]), 2.56e-06 mM; in data set [2] (setting [10]), 7.5e-06 mM; in [4] (setting [11]) it was 8.28e-06 mM; in data set [4] (setting [12]) it was 4.2e-06 mM; in the data set with HepG2 (setting [13]), 8.83e-07 mM. The IC50 in the data set on HepG2 (setting [14]) came to 2.51e-06 mM; in the data set with HLCs (Homo sapiens, read-out: IC50 single exposure, Mean) it was 5.39 nM. Moreover, the “IC50 single exposure, Mean” value in the data set on HepG2 and in the data set with HLCs (H9 HLC LDM D40) was “No toxicity” throughout.

Regarding `CC(C)[C@H](N)C(=O)O` [VAL, valine], the “relative CYP3A4 expression (compared to LDM 2% DMSO D20)” value in the data set with CYP3A4 [8] was 50.8533 and 59.0748 and 76.4937. For the same compound, in the data set on CYP3A4 [6] (setting [15]), the “Relative CYP3A4 expression” value is 39.34 and 55.9446 and 51.9815.
